# Test results published in patent publication US8318781B2, “G-protein-conjugated receptor agonist” (Japan Science and Technology Agency, priority 2007, dated 2012).
# Where two headings read alike, the source gives them in different places.
# Assays:
# Type in all cases: cell-based
# [1] = target: T1, human GPR120 (hGPR120) (Homo sapiens, UniProt Q5NUL3); assay: Determination of intracellular Ca2+ concentration (FLIPR), cell line TXGPR120; conditions: for selectivity between GPR40 and GPR120 (in words), from Tables 3 and 4: GPR40 versus GPR120, Ca2+ and ERK results; for agonistic activity for hGPR120 (in words): cells in which GPR120 has been transgenically expressed; for [Ca^2+]/GPR120 10 μM (ratio vs. LA): relative fluorescence intensity vs LA at 10 μM
# T1 construct: expressed in transfected cells; doxycycline-inducible expression vector
# T1 sequence (Q5NUL3 1-361): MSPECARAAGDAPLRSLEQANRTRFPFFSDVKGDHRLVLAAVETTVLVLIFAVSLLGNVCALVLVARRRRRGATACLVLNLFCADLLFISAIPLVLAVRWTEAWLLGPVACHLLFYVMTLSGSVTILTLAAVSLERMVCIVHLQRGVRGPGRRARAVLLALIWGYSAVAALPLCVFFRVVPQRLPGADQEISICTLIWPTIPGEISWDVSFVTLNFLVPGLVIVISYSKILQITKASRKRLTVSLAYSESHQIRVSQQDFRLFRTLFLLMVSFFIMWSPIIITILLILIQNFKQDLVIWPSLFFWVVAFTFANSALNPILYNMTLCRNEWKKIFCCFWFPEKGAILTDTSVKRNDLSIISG
# Description: (§1) (1) In this test, The cell lines TXGPR40, TXGPR120 and GPR120/Flp-in were plated onto a collagen-coated black 96-well plate in 2×10^5 cells/well. The 96-well plates containing the cells were centrifuged and treated with Doxycycline (final concentration 10 μg/mL), incubated in a CO2 incubator for 21 hours, then used for assay.
# (§2) (2) The ligand used in this test includes NCP04, NCP14, NCG20, NCG21, NCG22, NCG23, NCP02, NCP03, NCP05, NCP06, NCG14, NCG17, NCG19, NCG28, NCG29, NCG30, NCG31, NCG34, NCG35, NCG37, NCG38, NCG44, NCG45, NCG46, and NCG54. Each ligand was dissolved in DMSO and adjusted to the concentration of 10 mM, then diluted with Hanks' Balanced Salt Solution (pH 7.4) containing 20 mM HEPES (referred to as FLIPR buffer hereinafter) to the final concentration of 1 to 100 μM. 1% DMSO was used as the negative control, and LA was used as the positive control.
# (§3) The ligands and controls were placed in different 96-well plates from the plates for the cells.
# (§4) (3) The 96-well plate containing the cells was removed from the CO2 incubator. A fluorescent dye prepared in a twofold higher concentration (Ca Assay Kit Component A diluted with FLIPR Buffer) was added in 50 μL/well, then allowed to stand in the dark at room temperature for one hour.
# (§5) (4) After one hour, the 96-well plate containing the cells and the 96-well plate in which ligands and controls were prepared were set on FLIPR (Fluorometric Imaging Plate Reader) for determination.
# (§6) (5) Fluorometry using FLIPR was carried out at a laser output of 1.0 W for five minutes. […] after the start of the determination, the ligand (25 μL) was added dropwise to the cell plate at a rate of 50 μL/sec. The intensity of fluorescence was automatically digitized by the application program installed in the FLIPR from the image taken by the CCD camera (with exposure time of 0.40 sec). The interval of data sampling was one second for the initial one minute after the start of operation, and six seconds for the subsequent four minutes.
# (§7) (6) The maximum fluorescence intensity was obtained from the data showing the change in the fluorescence intensity over time observed in each well. The maximum fluorescence intensity was plotted against ligand concentration, and pEC50 was calculated. The ratio of the fluorescence intensity for each ligand to LA at 10 μM was calculated as the relative intensity of each ligand.
# [2] = target: T1, human GPR120 (hGPR120); assay: Determination of intracellular Ca2+ concentration (FLIPR), cell line GPR120/Flp-in; conditions: for [Ca^2+]/GPR120/Flp-In 10 μM (ratio vs. LA): relative fluorescence intensity vs LA at 10 μM
# Description: as §1, §2, §3, §4, §5, §6, §7
# [3] = target: T2, human GPR40 (hGPR40) (Homo sapiens, UniProt O14842); assay: ERK assay, screening for GPR40 ligands in cell line TXGPR40; conditions: TXGPR40 cells; for ERK/GPR40 100 μM: ligand 100 μM; for ERK activation for GPR40 (in words): FIGS. 1-4
# T2 construct: expressed in transfected cells; doxycycline-inducible expression vector
# Description: (§8) This Test 1 was carried out by using the following materials and methods.
# (§9) (1) In this test, the cell lines TXGPR40 and TXGPR120 were plated in 35-mm dishes in 5×10^5 cells/per dish.
# (§10) Each ligand was dissolved in DMSO, diluted tenfold with the medium to make the total amount of 100 μl. DMSO was used as the negative control, and PMA (phorbol-12-myristate-13-acetate) was used as the positive control.
# (§11) (3) The medium was removed from the dish of the cell to reduce the total amount of liquid to 0.9 ml.
# (§12) (4) The ligand solution was added dropwise to the cell solution, and dispersed by gently shaking the dish, and allowed to react at room temperature.
# (§13) (5) After 5 minutes of reaction, the medium was discarded, and the remaining medium on the dish was removed on ice using an aspirator.
# (§14) (6) 150 μl of Lysis buffer (50 mM HEPES (pH 7.0), 150 mM NaCl, 10% glycerol, 1% NonidetP-40, 2 mM MgCl2, 1 mM EDTA, 100 mM NaF, 10 mM sodium phosphate, 1 mM Na3VO4, 20 mM β-glycerophosphate, and Proteinase inhibitor) were added, then the cells were collected using a cell scraper.
# (§15) (1) The crude enzyme solution mixed with SDS Sample Buffer was subjected to ultrasonication with a sonifier, then incubated at 90° C. for five minutes.
# (§16) (2) The mixture was vortexed and centrifuged at 15,000 rpm for five minutes at 4° C.
# (§17) (3) The supernatant of the centrifuged sample was applied to two 7.5% acrylamide gel slabs placed in an electrophoresis tank filled with 1×SDS-PAGE Running Buffer (25 mM Tris, 0.2 M Glycin, and 1% SDS). Electrophoresis was carried out under a constant current of 40 mA for about 80 to 90 minutes.
# (§18) (1) A PVDF membrane cut in the same size as the gel slab was immersed in methanol for about 15 seconds and then shaken in Transfer Buffer C solution (25 mM Tris, 0.02% SDS, 2% methanol and 40 mM 6-aminohexanoic acid) at room temperature to swell for 15 minutes. Filter paper for blotting was cut into a 10-cm square.
# (§19) (2) On the blotting apparatus were placed sequentially two pieces of filter paper immersed in A solution (0.3 M Tris, 0.02% SDS and 2% methanol), two pieces of filter paper immersed in B solution (25 mM Tris, 0.02% SDS and 2% methanol), and the membrane thereon. The gel slab after electrophoresis, and finally two pieces of filter paper immersed in C solution was placed thereon, and the apparatus was closed.
# (§20) (3) The protein was transferred to the membrane at 15 V for 30 minutes.
# (§21) (1) The following procedure was all carried out at room temperature. After the protein transfer, the membrane was placed into a vial containing 1×TTBS (0.2 M Tris, 1.5 M NaCl, 0.2% Tween 20) and washed for 15 minutes.
# (§22) (2) TTBS was discarded, and about 10 ml of Block Ace was added and blocked on a shaker for one hour.
# (§23) (1) The primary antibodies (p44/42 MAP Kinase Antibody and Phospho-p44/42 MAP Kinase Antibody) were each diluted 1000-fold with TTBS.
# (§24) (2) After blocking, the Block Ace solution was removed, the solution of the primary antibody was added and allowed to react on the shaker for two hours.
# (§25) (1) The secondary antibody (Anti-rabbit Ig, Horseradish Peroxidase linked F(ab′)2 fragments) was diluted 5000-fold with TTBS.
# (§26) (2) The primary antibody solution was removed and the membrane was washed three times on the shaker in TTBS for five to ten minutes each.
# (§27) (3) TTBS was removed and the solution of secondary antibody was added and left for 1 hour on the shaker.
# (§28) (1) 2 ml each of Detection Reagent 1 and Detection Reagent 2 from ECL kit were mixed together on ice.
# (§29) (2) The solution of secondary antibody was removed from the membrane reacted with the secondary antibody and then washed three times on the shaker in TTBS for five minutes each.
# (§30) (3) The liquid was thoroughly removed from the membrane, which was then placed in a plastic bag, and 2 ml of the Detection Reagent mixture was added per each membrane.
# (§31) (4) The membrane was kept in contact with a film in the cassette for one to five minutes, and the film was developed using an automatic developing machine.
# [4] = target: T2, human GPR40 (hGPR40); assay: Determination of intracellular Ca2+ concentration (FLIPR), cell line TXGPR40; conditions: for [Ca^2+]/GPR40 10 μM (ratio vs. LA): relative fluorescence intensity vs LA at 10 μM
# Description: as §1, §2, §3, §4, §5, §6, §7
# [5] = target: T1, human GPR120 (hGPR120); assay: ERK assay, screening for GPR120 ligands in cell line TXGPR120;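 on ERK/GPR120 10 μM: signals normalized between DMSO and PMA controls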; conditions: for selectivity for GPR120 in ERK assay (in words): GPR120 versus GPR40; for ERK activation for GPR120 (in words) / ERK/GPR120 10 μM / ERK/GPR120 100 μM: TXGPR120 cells; for ERK activation for GPR120 (in words): FIGS. 5-8; for ERK/GPR120 10 μM: ligand 10 μM; for ERK/GPR120 10 μM / ERK/GPR120 100 μM: class relative to LA; for ERK/GPR120 100 μM: ligand 100 μM
# Description: as §8, §9, §10, §11, §12, §13, §14, §15, §16, §17, §18, §19, §20, §21, §22, §23, §24, §25, §26, §27, §28, §29, §30, §31
# [6] = TXGPR120 cells, maximum fluorescence intensity vs ligand concentration, read-out: [Ca^2+]/GPR120 pEC50 (converted)
# [7] = GPR120/Flp-in cells, maximum fluorescence intensity vs ligand concentration, read-out: [Ca^2+]/GPR120/Flp-In pEC50 (converted)
# T2 sequence (O14842 whole entry): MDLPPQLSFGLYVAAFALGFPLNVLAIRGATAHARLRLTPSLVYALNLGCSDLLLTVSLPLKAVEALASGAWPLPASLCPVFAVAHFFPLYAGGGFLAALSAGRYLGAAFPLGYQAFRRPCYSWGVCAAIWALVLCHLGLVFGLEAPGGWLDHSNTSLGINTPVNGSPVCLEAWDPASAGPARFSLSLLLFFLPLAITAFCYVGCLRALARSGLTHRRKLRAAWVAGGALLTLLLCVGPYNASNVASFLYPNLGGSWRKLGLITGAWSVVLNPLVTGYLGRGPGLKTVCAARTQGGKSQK
SMILES,"selectivity between GPR40 and GPR120 (in words), from Tables 3 and 4 [1]","EC50 [1, 6] [µM]",agonistic activity for hGPR120 (in words) [1],[Ca^2+]/GPR120 10 μM (ratio vs. LA) ([1]; TXGPR120 cells),"EC50 [2, 7] [µM]",[Ca^2+]/GPR120/Flp-In 10 μM (ratio vs. LA) ([2]; GPR120/Flp-in cells),ERK/GPR40 100 μM ([3]; class relative to LA),"EC50 ([4]; TXGPR40 cells, maximum fluorescence intensity vs ligand concentration, read-out: [Ca^2+]/GPR40 pEC50 (converted)) [µM]",[Ca^2+]/GPR40 10 μM (ratio vs. LA) ([4]; TXGPR40 cells),selectivity for GPR120 in ERK assay (in words) [5],ERK activation for GPR120 (in words) [5],ERK/GPR120 10 μM [5],ERK/GPR120 100 μM [5],ERK activation for GPR40 (in words) [3],EC50 [1] [µM],EC50 [2] [µM],"ERK/GPR40 10 μM ([3]; ligand 10 μM, class relative to LA)",EC50 [4] [µM],agonistic activity for GPR40 (in words) ([4]; cells in which GPR40 has been transgenically expressed)
COc1cccc(N(CCOc2ccc(CCCC(=O)O)cc2)c2ccccc2)n1 [NCG37],acting relatively mildly for GPR40 but acting strongly for GPR120,17.8,exhibit a similar effect,0.56,3.47,0.91,+ (+ denotes 0 to 100% of LA),16.2,0.28,selective for GRP120,strongly activate ERK,+++ (+++ denotes a higher value than LA),+++ (+++ denotes a higher value than LA),,,,,,
O=C(O)CCCc1ccc(OCCN(c2ccccc2)c2cccnc2)cc1 [NCG30],acting relatively mildly for GPR40 but acting strongly for GPR120,15.5,exhibit a similar effect,0.71,3.72,0.88,+ (+ denotes 0 to 100% of LA),,0.01,selective for GRP120,strongly activate ERK,++ (++ denotes 50 to 100% of LA),+++ (+++ denotes a higher value than LA),strongly activated ERK,,,,,
O=C(O)CCCc1ccc(OCCN(c2ccccc2)c2ccccc2)cc1 [NCG29],,,exhibit a similar effect,0.85,,0.88,+++ (+++ denotes a higher value than LA),,0.21,,strongly activate ERK,+++ (+++ denotes a higher value than LA),+++ (+++ denotes a higher value than LA),strongly activated ERK,12,4.27,++ (++ denotes 50 to 100% of LA),20.9,showed a specific reactivity
